Data: US6087355A, “Cephalosporin antibiotics” (Microcide Pharmaceuticals, Inc., priority 1996, dated 2000)
Structures can show the parent of a compound that is named as a salt.

Columns and labels:
E. coli ATCC 25992 = assay: In vitro MIC, agar dilution; assay type: cell-based; settings: for MIC: Escherichia coli, ATCC25992, read-out: minimum inhibitory concentration (MIC)
How it was run: (§1)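 Spots of about 10^4 cfu of log-phase culture were applied, and plates were incubated 16-20 h at 35-36 °C. MIC was the lowest concentration inhibiting growth.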

E. faecalis ATCC 29212 = assay: In vitro MIC, agar dilution; assay type: cell-based; settings: for MIC: Enterococcus faecalis, ATCC29212, read-out: minimum inhibitory concentration (MIC)
How it was run: as §1

E. faecalis VanB(Van^R) = assay: In vitro MIC, agar dilution; assay type: cell-based; settings: for MIC: Enterococcus faecalis, read-out: minimum inhibitory concentration (MIC)
How it was run: as §1

E. faecium A491(Amp^R) = assay: In vitro MIC, agar dilution; assay type: cell-based; settings: for MIC: Enterococcus faecium, read-out: minimum inhibitory concentration (MIC)
How it was run: as §1

E. faecium ATCC 35667 = assay: In vitro MIC, agar dilution; assay type: cell-based; settings: for MIC: Enterococcus faecium, ATCC35667, read-out: minimum inhibitory concentration (MIC)
How it was run: as §1

E. faecium VanA(Van^R) = assay: In vitro MIC, agar dilution; assay type: cell-based; settings: for MIC: Enterococcus faecium, read-out: minimum inhibitory concentration (MIC)
How it was run: as §1

P. aeruginosa ATCC 27853 = assay: In vitro MIC, agar dilution; assay type: cell-based; settings: for MIC: Pseudomonas aeruginosa, ATCC27853, read-out: minimum inhibitory concentration (MIC)
How it was run: as §1

[1] = system: S. aureus 76(Meth^R)(lac^+); assay: In vitro MIC, agar dilution; assay type: cell-based; settings: for MIC: Staphylococcus aureus, read-out: minimum inhibitory concentration (MIC)
How it was run: as §1

[2] = system: S. aureus ATCC 13709(Meth^S); assay: In vitro MIC, agar dilution; assay type: cell-based; settings: for MIC: Staphylococcus aureus, ATCC13709, S. aureus ATCC 13709(Meth^S), read-out: minimum inhibitory concentration (MIC)
How it was run: as §1

S. aureus ATCC 29213 = assay: In vitro MIC, agar dilution; assay type: cell-based; settings: for MIC: Staphylococcus aureus, ATCC29213, read-out: minimum inhibitory concentration (MIC)
How it was run: as §1

[3] = system: S. aureus ATCC 33593(Meth^R); assay: In vitro MIC, agar dilution; assay type: cell-based; settings: for MIC: Staphylococcus aureus, ATCC33593, read-out: minimum inhibitory concentration (MIC)
How it was run: as §1

[4] = system: S. aureus PC1(Meth^S)(lac^+); assay: In vitro MIC, agar dilution; assay type: cell-based; settings: for MIC: Staphylococcus aureus, read-out: minimum inhibitory concentration (MIC)
How it was run: as §1

[5] = system: S. aureus Spain #356(Meth^R); assay: In vitro MIC, agar dilution; assay type: cell-based; settings: for MIC: Staphylococcus aureus, read-out: minimum inhibitory concentration (MIC)
How it was run: as §1

[6] = system: S. haemolyticus 05(Meth^R); assay: In vitro MIC, agar dilution; assay type: cell-based; settings: for MIC: Staphylococcus haemolyticus, read-out: minimum inhibitory concentration (MIC)
How it was run: as §1

[7] = system: S. aureus Col(Meth^R)(lac^-); assay: In vitro MIC, agar dilution; assay type: cell-based; settings: for MIC: Staphylococcus aureus, read-out: minimum inhibitory concentration (MIC)
How it was run: (§2)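 Two-fold dilutions (128 to ≤0.25 μg/mL, in duplicate) were poured into Mueller-Hinton agar. Log-phase broth cultures were spot-inoculated at about 10^4 cfu per spot and incubated 35-36°C for 16-20 hours; the MIC was the lowest concentration inhibiting growth. Col is a high-level PBP2a producer; Col 8A is its isogenic PBP2a-lacking partner.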

[8] = system: S. aureus Col8A(Meth^S)(lac^-); assay: In vitro MIC, agar dilution; assay type: cell-based; settings: S. aureus Col8A(Meth^S)(lac^-); for MIC: Staphylococcus aureus, read-out: minimum inhibitory concentration (MIC)
How it was run: as §2

[9] = system: S. aureus strain ATCC 13709 (methicillin-susceptible); assay: Murine model for lethal bacteremic peritonitis; assay type: in vivo, female Swiss-Webster mice; settings: Staphylococcus aureus, ATCC13709, SC, 72 h; for responders at 0.3125 mg/kg / responders at 0.625 mg/kg / responders at 2.5 mg/kg / responders at 5 mg/kg: read-out: Survivors; for responders at 1.25 mg/kg: read-out: Survivors (converted); for ED50: two equal doses, IP challenge, read-out: ED50
How it was run: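 Female Swiss-Webster mice were challenged IP with an LD100 inoculum in 7% hog gastric mucin, then given test drug subcutaneously in twofold increments (0.01–512 mg/kg) as two equal doses at challenge and 2 h later, 10 mice per group. Survival was scored at 72 h; PD50 (total mg/kg) was derived by probit.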

Compound | MIC (E. coli ATCC 25992) [µg/mL] | MIC (E. faecalis ATCC 29212) [µg/mL] | MIC (E. faecalis VanB(Van^R)) [µg/mL] | MIC (E. faecium A491(Amp^R)) [µg/mL] | MIC (E. faecium ATCC 35667) [µg/mL] | MIC (E. faecium VanA(Van^R)) [µg/mL] | MIC (P. aeruginosa ATCC 27853) [µg/mL] | MIC [1] [µg/mL] | MIC [2] [µg/mL] | MIC (S. aureus ATCC 29213) [µg/mL] | MIC [3] [µg/mL] | MIC [4] [µg/mL] | MIC [5] [µg/mL] | MIC [6] [µg/mL] | MIC [7] [µg/mL] | MIC [8] [µg/mL] | responders at 0.3125 mg/kg [9] [%] | responders at 0.625 mg/kg [9] [%] | responders at 1.25 mg/kg [9] [%] | responders at 2.5 mg/kg [9] [%] | also measured
Nc1nc(/C(=N/O)C(=O)N[C@@H]2C(=O)N3C(C(=O)O)=C(Sc4ccncc4CSC4CCNC4)CS[C@H]23)cs1 (stereo partly drawn) [Cmpd 17, (7R)-7-[(Z)-2-(aminothiazol-4-yl)-2-(hydroxyimino)acetamido]-3-[3-(3-pyrrolidinothiomethyl)pyrid-4-ylthio]-3-cephem-4-carboxylate, trifluoroacetic acid salt] | 2 | 0.13 | 0.5 | > 32 | 1 | 0.25 | > 32 | 4 | 0.25 | 0.25 | 2 | 0.25 | 4 | 8 | 2 | 0.5 | 20 | 20 | 50 | 30 | responders at 5 mg/kg [9]: 60%; ED50 [9]: 3.59 mg/kg
NCCCSCc1cnccc1SC1=C(C(=O)O)N2C(=O)[C@@H](NC(=O)/C(=N\O)c3nc(N)sc3Cl)[C@H]2SC1 [Cmpd 27, (7R)-7-[(Z)-2-(2-amino-5-chlorothiazol-4-yl)-2-(hydroxyimino)acetamido]-3-[3-(3-aminopropyl)thiomethylpyrid-4-ylthio]-3-cephem-4-carboxylate, trifluoroacetic acid salt] | 8 | ≤ 0.06 | ≤ 0.06 | 4 | 0.25 | 0.5 | 32 | 1 | 0.13 | 0.25 | 1 | 0.25 | 1 | 2 | 0.5 | 0.13 | 0 | 0 | 20 | 60 | responders at 5 mg/kg [9]: 70%; ED50 [9]: 2.64 mg/kg
CNCCNCCSCc1nnsc1SC1=C(C(=O)O)N2C(=O)[C@@H](NC(=O)/C(=N\OCCF)c3nc(N)sc3Cl)[C@H]2SC1.O=C(O)C(F)(F)F [Cmpd 28, (7R)-7-[(Z)-2-(2-amino-5-chlorothiazol-4-yl)-2-(2-fluoroethoxyimino)acetamido]-3-[(methylaminoethylaminoethylthiomethyl)-1,2,3-thiadiazol-5-ylthio]-3-cephem-4-carboxylate, trifluoroacetic acid salt] | 2 | 0.13 | 0.25 | 16 | 1 | 4 | 32 | 2 | 0.13 | 1 | 4 | 0.5 | 2 | 4 | 2 | 0.25 | 10 | 10 | 40 | 30 | responders at 5 mg/kg [9]: 70%; ED50 [9]: 3.01 mg/kg
NCCSc1cnccc1SC1=C(C(=O)O)N2C(=O)[C@@H](NC(=O)/C(=N\O)c3nc(N)sc3Cl)[C@H]2SC1 [Cmpd 30, (7R)-7-[(Z)-2-(2-amino-5-chlorothiazol-4-yl)-2-(hydroxyimino)acetamido]-3-(3-aminoethylthiopyrid-4-ylthio)-3-cephem-4-carboxylate, trifluoroacetic acid salt] | 8 | ≤ 0.06 | ≤ 0.06 | 8 | 0.5 | 1 | > 32 | 2 | ≤ 0.25 | 0.25 | 1 | ≤ 0.25 | 1 | 1 | 0.5 | 0.13 | 0 | 20 | 40 | 100 | responders at 5 mg/kg [9]: 100%; ED50 [9]: 1.14 mg/kg
NCC(O)CSCc1cnccc1SC1=C(C(=O)O)N2C(=O)[C@@H](NC(=O)/C(=N\O)c3nc(N)sc3Cl)[C@H]2SC1 (stereo partly drawn) [Cmpd 32, (7R)-7-[(Z)-2-(2-amino-5-chlorothiazol-4-yl)-2-(hydroxyimino)acetamido]-3-[3-(3-amino-2-hydroxyprop-1-ylthiomethyl)pyrid-4-ylthio]-3-cephem-4-carboxylate, trifluoroacetic acid salt] | 8 | ≤ 0.06 | 0.13 | 8 | 0.5 | 1 | > 32 | 2 | 0.13 | 0.25 | 2 | 0.5 | 2 | 4 | 1 | 0.25 | 0 | 10 | 50 | 50 | responders at 5 mg/kg [9]: 80%; ED50 [9]: 2 mg/kg
CN(C)C(=O)[C@@H](N)CSCc1cnccc1SC1=C(C(=O)O)N2C(=O)[C@@H](NC(=O)/C(=N\O)c3nc(N)sc3Cl)[C@H]2SC1 [Cmpd 58, (7R)-7-[(Z)-2-(2-amino-5-chlorothiazol-4-yl)-2-(hydroxyimino)acetamido]-3-(3-(2R-2-N,N-dimethylcarboxamido-2-aminoethylthiomethyl)pyrid-4-ylthio)-3-cephem-4-carboxylate, trifluoroacetic acid salt] | 8 | 0.5 | 0.5 | 16 | 1 | 2 | > 32 | 4 | 0.5 | 0.5 | 2 | 1 | 4 | 4 | 4 | 0.5 | 10 | 10 | 20 | 50 | responders at 5 mg/kg [9]: 50%; ED50 [9]: 4.1 mg/kg
(7R)-7-[(Z)-2-(aminothiazol-4-yl)-2-(hydroxyimino)acetamido]-3-[(guanidinoethylaminoethylthiomethyl)-1,2,3-thiadiazol-5-ylthio]-3-cephem-4-carboxylate, trifluoroacetic acid salt [Cmpd 12] |  |  |  |  |  |  |  |  |  |  |  |  |  |  |  |  |  |  |  |  | minimum inhibitory concentration (MIC) (E. coli ATCC 25992): 8 µg/mL; minimum inhibitory concentration (MIC) (E. faecalis ATCC 29212): 0.25 µg/mL; minimum inhibitory concentration (MIC) (E. faecalis VanB(Van^R)): 0.5 µg/mL; minimum inhibitory concentration (MIC) (E. faecium A491(Amp^R)): > 32 µg/mL; minimum inhibitory concentration (MIC) (E. faecium ATCC 35667): 1 µg/mL; minimum inhibitory concentration (MIC) (E. faecium VanA(Van^R)): 4 µg/mL; minimum inhibitory concentration (MIC) (P. aeruginosa ATCC 27853): > 32 µg/mL; minimum inhibitory concentration (MIC) [1]: 2 µg/mL; minimum inhibitory concentration (MIC) ([2]; S. aureus ATCC 13709(Meth^S)): 0.25 µg/mL; minimum inhibitory concentration (MIC) (S. aureus ATCC 29213): 0.5 µg/mL; minimum inhibitory concentration (MIC) [3]: 2 µg/mL; minimum inhibitory concentration (MIC) [4]: 0.5 µg/mL; minimum inhibitory concentration (MIC) [5]: 2 µg/mL; minimum inhibitory concentration (MIC) [6]: 2 µg/mL; minimum inhibitory concentration (MIC) [7]: 2 µg/mL; minimum inhibitory concentration (MIC) [8]: 0.5 µg/mL
